For the test, the system named is mouse bone marrow-derived cultured mast cells (BMMC). Description: Inhibition of histamine release from IgE-sensitized, DNP-HSA-stimulated mouse mast cells. To be noted: for Ratio of Histamine Release Inhibiting Effect %: sample at 10 μg/ml, relative to distilled water control. The format is cell-based. How it is done: In order to determine the anti-allergic activity (type I allergy), inhibitory activity on the release of histamine from mouse mast cells was used as an indicator. The histamine release inhibitory effect was investigated by using mouse bone marrow-derived cultured mast cells (BMMC). The cells were cultured in a RPMI1640 medium supplemented with 10% heat inactivated FBS (fetal bovine serum), 3 ng/ml of interleukin-3 (IL-3), 5 mM […], and 50 μM 2-mercaptoethanol. The cells (1×10^7 cells/ml) were sensitized anti-DNP mouse IgE antibody overnight, then, on the following day, suspended in a Tyrode solution and incubated with the test samples for 10 minutes, degranulation was induced by adding DNP-HSA (antigen) (20 minutes), and the amount of histamine in the supernatant fluid was determined using liquid chromatography. An LC-10A (manufactured by Shimadzu Corporation) was used as the measuring instrument, and […] was used as the column. Isocratic analysis was conducted under the following conditions: flow rate of 0.5 ml/min; injection amount of 20 μl; temperature of the column oven of 37° C.; detector RF ([…], em. 430 nm). The anti-allergic activity was determined to be high when the relative value to distilled water, which was a control, was lower.

With `COc1cc(C(=O)O[C@@H]2Cc3c(O)cc(O)cc3O[C@@H]2c2ccc(O)c(O)c2)cc(O)c1O` [ECG3″Me, epictechin-3-O-(3-O-methyl)gallate], the “Ratio of Histamine Release Inhibiting Effect %” value was 46.79%. In addition, the anti-allergic activity entry (among the compounds of general formula (1), summary statement) is reported as “especially strong anti-allergic activity”. The “histamine release inhibiting effect relative to that of EGCG3″Me” value (beverages containing 2 μg/ml and 10 μg/ml, FIG. 2) is “approximately 1.5 times”. In addition, the “histamine release inhibiting effect when added to Yabukita hot-water extract” value (final additive concentration 0.1 to 50 μg/ml in Yabukita hot-water extract, FIG. 4) is given as “can increase the anti-allergic activity more than EGCG3″Me”.

Regarding “epigallocatechin-3-O-(3-O-methyl)gallate [EGCG3″Me, reference compound]”, the “Ratio of Histamine Release Inhibiting Effect %” value was found to be 29.6%.

On to “epigallocatechin-3-O-gallate [EGCG, reference compound]”, for which the “Ratio of Histamine Release Inhibiting Effect %” value worked out at 7.63%.

The values are drawn from US20100160425A1, “ANTI-ALLERGIC AGENT AND BEVERAGE/FOOD, PREPARATION FOR EXTERNAL APPLICATION OR COSMETIC COMPRISING THE AGENT” (priority 2006, published 2010).
